Several values for one entry are separate records, joined by “and”; a condition that tells them apart may be missing. Equal values may be shown once. Read-outs that look alike come from different tables or passages of the source.
Legend:
[1] = literature value, cited from earlier work
tumor lesions [2] = assay: PET/CT tumor uptake (SUVmax) 1 h after injection; conditions: not statistically significant; for Uptake by tumors, average SUVmax: interindividual comparison, 25 patients per tracer
[3] = Radiation dosimetry estimate from serial PET/CT (QDOSE; OLINDA 1.1, IDAC-Dose 1.0/2.1); type: in vivo, patients; conditions: for Radiation exposure (effective dose) per 100 MBq: PET; for Radiation exposure (effective dose) per 100 MBq / Effective dose / Dosimetry estimate (OLINDA), Red marrow / Dosimetry estimate (OLINDA), Adrenals / Dosimetry estimate (OLINDA), Brain / Dosimetry estimate (OLINDA), Breasts / Dosimetry estimate (OLINDA), Gallbladder wall / Dosimetry estimate (OLINDA), Heart wall / Dosimetry estimate (OLINDA), Kidneys / Dosimetry estimate (OLINDA), Liver / Dosimetry estimate (OLINDA), Lower large intestine wall / Dosimetry estimate (OLINDA), Lungs / Dosimetry estimate (OLINDA), Muscle / Dosimetry estimate (OLINDA), Osteogenic cells / Dosimetry estimate (OLINDA), Ovaries / Dosimetry estimate (OLINDA), Pancreas / Dosimetry estimate (OLINDA), Skin / Dosimetry estimate (OLINDA), Small intestine / Dosimetry estimate (OLINDA), Spleen / Dosimetry estimate (OLINDA), Stomach wall / Dosimetry estimate (OLINDA), Testes / Dosimetry estimate (OLINDA), Thymus / Dosimetry estimate (OLINDA), Thyroid / Dosimetry estimate (OLINDA), Upper large intestine wall / Dosimetry estimate (OLINDA), Urinary bladder wall / Dosimetry estimate (OLINDA), Uterus / Dosimetry estimate (OLINDA), Total body: one patient per tracer; for Equivalent dose / radiation dose of one examination: examination with 200 MBq of 68Ga; for Dosimetry estimate (OLINDA), Red marrow: approximated from PET volume of interest in a lumbar vertebra; for Dosimetry estimate (OLINDA), Red marrow / Dosimetry estimate (OLINDA), Adrenals / Dosimetry estimate (OLINDA), Brain / Dosimetry estimate (OLINDA), Breasts / Dosimetry estimate (OLINDA), Gallbladder wall / Dosimetry estimate (OLINDA), Heart wall / Dosimetry estimate (OLINDA), Kidneys / Dosimetry estimate (OLINDA), Liver / Dosimetry estimate (OLINDA), Lower large intestine wall / Dosimetry estimate (OLINDA), Lungs / Dosimetry estimate (OLINDA), Muscle / Dosimetry estimate (OLINDA), Osteogenic cells / Dosimetry estimate (OLINDA), Ovaries / Dosimetry estimate (OLINDA), Pancreas / Dosimetry estimate (OLINDA), Skin / Dosimetry estimate (OLINDA), Small intestine / Dosimetry estimate (OLINDA), Spleen / Dosimetry estimate (OLINDA), Stomach wall / Dosimetry estimate (OLINDA), Testes / Dosimetry estimate (OLINDA), Thymus / Dosimetry estimate (OLINDA), Thyroid / Dosimetry estimate (OLINDA), Upper large intestine wall / Dosimetry estimate (OLINDA), Urinary bladder wall / Dosimetry estimate (OLINDA), Uterus / Dosimetry estimate (OLINDA), Total body: unit not given; for Dosimetry estimate (OLINDA), Adrenals / Dosimetry estimate (OLINDA), Brain / Dosimetry estimate (OLINDA), Breasts / Dosimetry estimate (OLINDA), Gallbladder wall / Dosimetry estimate (OLINDA), Heart wall / Dosimetry estimate (OLINDA), Kidneys / Dosimetry estimate (OLINDA), Liver / Dosimetry estimate (OLINDA), Lower large intestine wall / Dosimetry estimate (OLINDA), Lungs / Dosimetry estimate (OLINDA), Muscle / Dosimetry estimate (OLINDA), Osteogenic cells / Dosimetry estimate (OLINDA), Ovaries / Dosimetry estimate (OLINDA), Pancreas / Dosimetry estimate (OLINDA), Skin / Dosimetry estimate (OLINDA), Small intestine / Dosimetry estimate (OLINDA), Spleen / Dosimetry estimate (OLINDA), Stomach wall / Dosimetry estimate (OLINDA), Testes / Dosimetry estimate (OLINDA), Thymus / Dosimetry estimate (OLINDA), Thyroid / Dosimetry estimate (OLINDA), Upper large intestine wall / Dosimetry estimate (OLINDA), Urinary bladder wall / Dosimetry estimate (OLINDA), Uterus: organ dose
Procedure: (§1) To approximate the dosimetry, imaging was performed 10 min, 1 h, and 3 h after injection of 306 MBq of ^68Ga-FAPI-2 in one patient and 258 MBq of ^68Ga-FAPI-4 in another patient.
The dosimetry analysis was performed using the QDOSE dosimetry software suite (ABX-CRO). Kidneys, liver, spleen, urinary bladder content, red marrow, heart content, and remainder of body were included as source organs. Because of blood sampling failure due to poor vein conditions, the red marrow dose was approximated using the activity segmented with volume-of-interest technique in the PET scans. The non–tumor-affected lumbar vertebrae 5 (^68Ga-FAPI-2) and 4 (^68Ga-FAPI-4) were assumed to contain 2.46% of the total red marrow ([6]). Using QDOSE, all CT images were coregistered using an automatic deformable coregistration. PET images were coupled to the CT images of the corresponding imaging session. The PET images were transformed according to the transformation matrix of the coupled CT. The volumes of interest of all segmented source organs were drawn in the examination that had the best organ delineation and then were copied onto all other time points to calculate the time–activity curves. Monoexponential curve fitting was then applied to all organ time–activity curves. The cumulative activity Ã between time 0 and the first measured time point was calculated assuming a linear increase from 0 to the first measured activity. The Ã between the first measured time point and the last measured time point was integrated numerically using trapezoidal approximation. The Ã from the last measured time point to infinity was integrated using the fitted function. The total-body Ã was based on the injected activity and the calculated effective half-life in a total-field-of-view volume of interest, assuming that the limbs behave similar to the torso. This approach was chosen because some parts of the body were not in the field of view of the PET/CT device. The Ã values of total body and red marrow were added as organs into QDOSE. The Ã of the remainder of the body was then automatically calculated by subtracting all source-organ Ã values from the total-body Ã. All source-organ residence times were calculated by dividing the Ã by the injected activity. Absorbed and effective dose calculations were performed using the International Commission on Radiological Protection (ICRP)–endorsed IDAC-Dose 2.1 and IDAC-Dose 1.0 ([7]), which are integrated in QDOSE. In addition, the residence times of all included source organs and remainder of body were exported as an OLINDA case file for dose calculation in OLINDA 1.1 ([8]). Both IDAC-Dose 1.0 and OLINDA 1.1 are based on the Cristy–Eckerman stylized phantom series ([9]). IDAC-Dose 2.1 is based on the ICRP adult reference computational phantoms ([10]) and the ICRP-specific absorbed fractions ([11]). Organ masses were not adapted to individual subject organ masses.

[4] = PET/CT normal-organ / background uptake (SUVmax) 1 h after injection; conditions: for Unspecific uptake in locations of wound healing after surgical intervention, average SUVmax: interindividual comparison, 25 patients per tracer, not statistically significant
tumor lesions [5] = assay: Serial PET/CT 10 min, 1 h and 3 h after injection (tracer kinetics, tumor retention); type: in vivo, patients; conditions: mean; one patient with metastasized breast cancer per tracer
Procedure: as §1

[6] = intraindividual comparison of 6 patients

| Compound | Uptake by tumors, average SUVmax (tumor lesions [2]) | Radiation exposure (effective dose) per 100 MBq [3] | Effective dose ([3]; calculated with IDAC1/ICRP60) | Effective dose ([3]; calculated with IDAC2/ICRP103) | Effective dose ([3]; calculated with OLINDA) | Equivalent dose / radiation dose of one examination [3] | Dosimetry estimate (OLINDA), Red marrow [3] | Dosimetry estimate (OLINDA), Adrenals [3] | Dosimetry estimate (OLINDA), Brain [3] | Dosimetry estimate (OLINDA), Breasts [3] | Dosimetry estimate (OLINDA), Gallbladder wall [3] | Dosimetry estimate (OLINDA), Heart wall [3] | Dosimetry estimate (OLINDA), Kidneys [3] | Dosimetry estimate (OLINDA), Liver [3] | Dosimetry estimate (OLINDA), Lower large intestine wall [3] | Dosimetry estimate (OLINDA), Lungs [3] | Dosimetry estimate (OLINDA), Muscle [3] | Dosimetry estimate (OLINDA), Osteogenic cells [3] | Dosimetry estimate (OLINDA), Ovaries [3] | Dosimetry estimate (OLINDA), Pancreas [3] | further results |
| --- | --- | --- | --- | --- | --- | --- | --- | --- | --- | --- | --- | --- | --- | --- | --- | --- | --- | --- | --- | --- | --- |
| O=C([O-])CN1CCN(CC(=O)[O-])CCN(CC(=O)NC[C@H]2CC[C@H](C(=O)N[C@@H](Cc3ccc4ccccc4c3)C(=O)NCCCC[C@H](NC(=O)N[C@@H](CCC(=O)O)C(=O)O)C(=O)O)CC2)CCN(CC(=O)[O-])CC1.[68Ga+3] [^68Ga-PSMA-617] |  |  |  |  |  |  |  |  |  |  |  |  |  |  |  |  |  |  |  |  | Effective dose ([1]; no reference of its own printed): 2.1 mSv/100 MBq |
| N#C[C@@H]1CCCN1C(=O)CNC(=O)c1ccnc2ccc(OCCCN3CCN(C(=O)CN4CCN(CC(=O)O)CCN(CC(=O)O)CCN(CC(=O)O)CC4)CC3)cc12 [^68Ga-FAPI-2, metal not drawn] | 8.37 | 1.4 mSv/100 MBq and 1.4–1.8 mSv/100 MBq | 1.82E−2 mSv/MBq | 1.79E−2 mSv/MBq | 1.80E−2 mSv/MBq and 1.80E−02 mSv/MBq | 3–4 mSv | 3.28E−02 | 1.23E−02 | 9.54E−03 | 9.58E−03 | 1.19E−02 | 4.73E−02 | 4.45E−02 | 1.51E−02 | 1.23E−02 | 1.09E−02 | 1.04E−02 | 2.94E−02 | 1.24E−02 | 1.23E−02 | Tumor uptake, average SUVmax (tumor lesions [2]; [6]): 7.37; Dosimetry estimate (OLINDA), Skin [3]: 9.01E−03; Dosimetry estimate (OLINDA), Small intestine [3]: 1.19E−02; Dosimetry estimate (OLINDA), Spleen [3]: 2.62E−02; Dosimetry estimate (OLINDA), Stomach wall [3]: 1.13E−02; Dosimetry estimate (OLINDA), Testes [3]: 1.04E−02; Dosimetry estimate (OLINDA), Thymus [3]: 1.15E−02; Dosimetry estimate (OLINDA), Thyroid [3]: 1.03E−02; Dosimetry estimate (OLINDA), Upper large intestine wall [3]: 1.17E−02; Dosimetry estimate (OLINDA), Urinary bladder wall [3]: 8.89E−02; Dosimetry estimate (OLINDA), Uterus [3]: 1.33E−02; Dosimetry estimate (OLINDA), Total body [3]: 1.19E−02; Unspecific uptake in locations of wound healing after surgical intervention, average SUVmax [4]: 7.07; Background uptake in brain, average SUVmax [4, 6]: 0.32; Background uptake in liver, average SUVmax [4, 6]: 1.69; Background uptake in oral/pharyngeal mucosa, average SUVmax [4, 6]: 2.57; Uptake in all other organs compared with 18F-FDG ([4]; organs other than brain, liver, oral/pharyngeal mucosa, 6 patients): no significant difference; Decline of tumor uptake (washout) from 1 h to 3 h after injection (tumor lesions [5]): 75% |
| O=C([O-])CN(CCN(CC(=O)[O-])Cc1cc(CCC(=O)NCCCCCC(=O)NCCCC[C@H](NC(=O)N[C@@H](CCC(=O)O)C(=O)O)C(=O)O)ccc1[O-])Cc1cc(CCC(=O)O)ccc1[O-].[68Ga+3].[OH3+] [^68Ga-PSMA-11] |  |  |  |  |  |  |  |  |  |  |  |  |  |  |  |  |  |  |  |  | Effective dose [1]: 1.6–2.4 mSv/100 MBq |
| N#C[C@@H]1CC(F)(F)CN1C(=O)CNC(=O)c1ccnc2ccc(OCCCN3CCN(C(=O)CN4CCN(CC(=O)O)CCN(CC(=O)O)CCN(CC(=O)O)CC4)CC3)cc12 [^68Ga-FAPI-4, metal not drawn] | 10.07 | 1.8 mSv/100 MBq and 1.4–1.8 mSv/100 MBq | 1.66E−2 mSv/MBq | 1.35E−2 mSv/MBq | 1.64E−2 mSv/MBq and 1.64E−02 mSv/MBq | 3–4 mSv | 2.08E−02 | 1.12E−02 | 9.11E−03 | 8.88E−03 | 1.13E−02 | 2.02E−02 | 4.43E−02 | 1.46E−02 | 1.17E−02 | 9.89E−03 | 9.91E−03 | 2.16E−02 | 1.19E−02 | 1.13E−02 | Dosimetry estimate (OLINDA), Skin [3]: 8.63E−03; Dosimetry estimate (OLINDA), Small intestine [3]: 1.13E−02; Dosimetry estimate (OLINDA), Spleen [3]: 1.05E−02; Dosimetry estimate (OLINDA), Stomach wall [3]: 1.06E−02; Dosimetry estimate (OLINDA), Testes [3]: 1.01E−02; Dosimetry estimate (OLINDA), Thymus [3]: 1.01E−02; Dosimetry estimate (OLINDA), Thyroid [3]: 9.82E−03; Dosimetry estimate (OLINDA), Upper large intestine wall [3]: 1.11E−02; Dosimetry estimate (OLINDA), Urinary bladder wall [3]: 9.91E−02; Dosimetry estimate (OLINDA), Uterus [3]: 1.30E−02; Dosimetry estimate (OLINDA), Total body [3]: 1.09E−02; Unspecific uptake in locations of wound healing after surgical intervention, average SUVmax [4]: 6.76; Decline of tumor uptake (washout) from 1 h to 3 h after injection (tumor lesions [5]): 25% |
